Some test systems named below: RXF 393 renal; MDA-MB-435; A549 NSCLC; OVCAR-5 ovarian; HOP-92 NSCLC; HCT-15 colon; MOLT-4 leukemia; M14 melanoma; KM12 colon; HCT-116 colon; RPMI-8226 leukemia; HS 578T breast; MCF7 breast; HCC-2998 colon; MALME-3M melanoma; SF-295 CNS; A498 renal; SW-620 colon; NCI/ADR-RES ovarian; COLO 205 colon.
Holding throughout (assay): DTP human tumour cell line panel, 48 h

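Test compounds were applied to cells in 96-well plates for 48 hours at 5 doses. At the TGI there is no net growth.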

Regarding `CCCCc1c2c(nc3c1CCCC3O)CCCC2` (stereo not given), the TGI with RXF 393 renal, in the assay with MDA-MB-435, in the assay with A549 NSCLC, with OVCAR-5 ovarian, in the assay with HOP-92 NSCLC and in the assay with HCT-15 colon was greater than 100 µM throughout. Also, the TGI in the assay on MOLT-4 leukemia, with M14 melanoma, in the assay with KM12 colon, in the assay on HCT-116 colon, in the assay with RPMI-8226 leukemia and in the assay on HS 578T breast was greater than 100 µM throughout. Also, the TGI in the assay with MCF7 breast, in the assay with HCC-2998 colon, with MALME-3M melanoma, in the assay with SF-295 CNS, in the assay on A498 renal and in the assay with SW-620 colon was greater than 100 µM in each case. The TGI in the assay with NCI/ADR-RES ovarian and with COLO 205 colon was greater than 100 µM throughout.
For the compound `CCCCCCCCCc1cc(-c2ccc(C=O)s2)sc1-c1ccc(C=O)s1`, the TGI in the assay with RXF 393 renal is 35.4 µM; with MDA-MB-435, greater than 100 µM; in the assay on A549 NSCLC it was greater than 100 µM; with OVCAR-5 ovarian it was greater than 91.6 µM; in the assay on HOP-92 NSCLC, 75.8 µM; with HCT-15 colon, greater than 72.7 µM. Besides, the TGI with MOLT-4 leukemia is 10.5 µM; in the assay with M14 melanoma it was 25 µM; in the assay on KM12 colon, greater than 100 µM; with HCT-116 colon, 49 µM; with RPMI-8226 leukemia, 51.2 µM; in the assay with HS 578T breast, 46.5 µM. The TGI is greater than 54.3 µM in the assay with MCF7 breast; greater than 78.7 µM in the assay with HCC-2998 colon; greater than 100 µM with MALME-3M melanoma; greater than 100 µM in the assay on SF-295 CNS; 3.12 µM in the assay with A498 renal; greater than 100 µM in the assay on SW-620 colon. The results for the TGI with NCI/ADR-RES ovarian and in the assay on COLO 205 colon were greater than 78.6 µM and greater than 31.6 µM, respectively.
As for `COc1ccc(/C=C/C(=O)/C=C/c2ccc(OC)cc2)cc1`, the TGI in the assay with RXF 393 renal was 36.6 µM; with MDA-MB-435, 29.6 µM; with A549 NSCLC, greater than 100 µM; in the assay with OVCAR-5 ovarian, greater than 100 µM; with HOP-92 NSCLC, 80.6 µM; with HCT-15 colon, greater than 100 µM. Also, the TGI was greater than 100 µM in the assay on MOLT-4 leukemia; 57.2 µM with M14 melanoma; 59.6 µM in the assay with KM12 colon; 23.3 µM with HCT-116 colon; 55.9 µM in the assay with RPMI-8226 leukemia; greater than 100 µM with HS 578T breast. For the same compound, the TGI in the assay on MCF7 breast was greater than 100 µM; in the assay on HCC-2998 colon it was 15.7 µM; in the assay on MALME-3M melanoma, greater than 100 µM; in the assay on SF-295 CNS it was greater than 100 µM; in the assay on A498 renal it was greater than 100 µM; in the assay with SW-620 colon, 52.5 µM. In addition, the TGI with NCI/ADR-RES ovarian is greater than 100 µM; in the assay with COLO 205 colon, 95.4 µM.
With `COc1cc(/C=C2\C[C@H]3[C@@H]4CC=C5C=C(N6CCCC6)CC[C@]5(C)[C@H]4CC[C@]3(C)C2=O)cc(OC)c1OC`, the TGI in the assay with RXF 393 renal was 4.04 µM; with MDA-MB-435 it was 5.83 µM; with A549 NSCLC it was greater than 51.7 µM; with OVCAR-5 ovarian it was 30.8 µM; in the assay with HOP-92 NSCLC it was 5.67 µM; with HCT-15 colon, 6.53 µM. For the same compound, the TGI in the assay with MOLT-4 leukemia is greater than 28 µM; in the assay on M14 melanoma, 5.37 µM; with KM12 colon, 4.37 µM; with HCT-116 colon it was 3.93 µM; in the assay on RPMI-8226 leukemia it was greater than 28 µM; with HS 578T breast, 6.21 µM. In addition, the TGI in the assay with MCF7 breast is 11.3 µM; in the assay with HCC-2998 colon, 3.57 µM; with MALME-3M melanoma it was 5.61 µM; with SF-295 CNS, 7.04 µM; with A498 renal, 21 µM; in the assay with SW-620 colon, greater than 41.6 µM. Further, the values for the TGI in the assay on NCI/ADR-RES ovarian and in the assay on COLO 205 colon were greater than 23.3 µM and 10.7 µM, respectively.

Source of the values: PubChem BioAssay (NCI).
